Data from publication PMC9516332 (Frontiers in Oncology, 2022).
Like-named read-outs stand apart in the source and are kept apart here.

How the values were obtained:
Experiment in all cases: Kinase panel profiling at 1 µmol/L (MSA or IMAP), percentage inhibition
Format in all cases: biochemical
[1] = target: panel of 255 wild-type kinases (Homo sapiens, UniProt P54764); conditions: read-out: %-inhibition at 1 µmol/L, EPHA4
[2] = target: T1, panel of 255 wild-type kinases (Homo sapiens, UniProt Q06418); conditions: read-out: %-inhibition at 1 µmol/L, TYRO3
T1 sequence (Q06418 41-890): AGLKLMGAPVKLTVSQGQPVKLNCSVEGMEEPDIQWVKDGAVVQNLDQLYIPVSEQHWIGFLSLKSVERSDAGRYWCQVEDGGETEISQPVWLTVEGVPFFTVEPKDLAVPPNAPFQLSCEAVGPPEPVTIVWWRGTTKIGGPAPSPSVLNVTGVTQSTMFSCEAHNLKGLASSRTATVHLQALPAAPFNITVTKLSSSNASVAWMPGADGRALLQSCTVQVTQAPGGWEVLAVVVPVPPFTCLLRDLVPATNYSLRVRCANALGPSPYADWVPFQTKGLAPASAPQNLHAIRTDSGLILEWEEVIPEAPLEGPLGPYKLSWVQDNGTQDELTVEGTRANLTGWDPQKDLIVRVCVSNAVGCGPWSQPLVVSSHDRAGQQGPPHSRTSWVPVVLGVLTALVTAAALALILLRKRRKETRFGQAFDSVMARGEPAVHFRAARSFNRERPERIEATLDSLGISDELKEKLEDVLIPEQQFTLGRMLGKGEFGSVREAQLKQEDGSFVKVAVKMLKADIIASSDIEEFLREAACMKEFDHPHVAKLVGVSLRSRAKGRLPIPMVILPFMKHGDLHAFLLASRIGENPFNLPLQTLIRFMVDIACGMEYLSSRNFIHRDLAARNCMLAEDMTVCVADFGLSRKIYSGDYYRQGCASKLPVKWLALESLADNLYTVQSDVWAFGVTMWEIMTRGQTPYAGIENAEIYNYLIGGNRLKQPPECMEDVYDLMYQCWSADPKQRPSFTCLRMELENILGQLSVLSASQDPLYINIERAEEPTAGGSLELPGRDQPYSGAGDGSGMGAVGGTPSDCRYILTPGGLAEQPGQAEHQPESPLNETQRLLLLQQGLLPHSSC

[3] = target: T2, panel of 255 wild-type kinases (Homo sapiens, UniProt P51813); conditions: read-out: %-inhibition BMX
T2 sequence (P51813 1-675): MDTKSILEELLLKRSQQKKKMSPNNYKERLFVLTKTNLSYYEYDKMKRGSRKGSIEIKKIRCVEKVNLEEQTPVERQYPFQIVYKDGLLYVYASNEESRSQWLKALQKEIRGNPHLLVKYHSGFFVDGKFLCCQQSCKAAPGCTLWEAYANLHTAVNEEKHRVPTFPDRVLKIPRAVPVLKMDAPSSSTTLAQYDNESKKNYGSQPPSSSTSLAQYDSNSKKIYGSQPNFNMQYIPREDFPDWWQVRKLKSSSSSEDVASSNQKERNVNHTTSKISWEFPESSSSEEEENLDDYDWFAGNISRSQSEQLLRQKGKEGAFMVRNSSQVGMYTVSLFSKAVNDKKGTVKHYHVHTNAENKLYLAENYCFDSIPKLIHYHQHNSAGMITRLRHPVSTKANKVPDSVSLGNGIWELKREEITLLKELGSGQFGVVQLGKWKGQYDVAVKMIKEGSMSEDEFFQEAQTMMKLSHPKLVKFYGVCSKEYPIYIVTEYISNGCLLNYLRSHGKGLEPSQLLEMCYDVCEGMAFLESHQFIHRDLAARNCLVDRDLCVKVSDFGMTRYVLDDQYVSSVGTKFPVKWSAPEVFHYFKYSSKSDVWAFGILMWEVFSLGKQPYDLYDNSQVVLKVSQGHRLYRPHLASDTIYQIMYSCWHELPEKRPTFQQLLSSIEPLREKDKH

[4] = target: panel of 255 wild-type kinases (Homo sapiens, UniProt O00311); conditions: read-out: %-inhibition CDC7/ASK
[5] = target: panel of 255 wild-type kinases (Homo sapiens, UniProt Q9Y2H1); conditions: read-out: %-inhibition, NDR2
[6] = target: T3, panel of 255 wild-type kinases (Homo sapiens, UniProt Q9NWZ3); conditions: read-out: %-inhibition at 1 µmol/L, IRAK4
T3 sequence (Q9NWZ3 1-460): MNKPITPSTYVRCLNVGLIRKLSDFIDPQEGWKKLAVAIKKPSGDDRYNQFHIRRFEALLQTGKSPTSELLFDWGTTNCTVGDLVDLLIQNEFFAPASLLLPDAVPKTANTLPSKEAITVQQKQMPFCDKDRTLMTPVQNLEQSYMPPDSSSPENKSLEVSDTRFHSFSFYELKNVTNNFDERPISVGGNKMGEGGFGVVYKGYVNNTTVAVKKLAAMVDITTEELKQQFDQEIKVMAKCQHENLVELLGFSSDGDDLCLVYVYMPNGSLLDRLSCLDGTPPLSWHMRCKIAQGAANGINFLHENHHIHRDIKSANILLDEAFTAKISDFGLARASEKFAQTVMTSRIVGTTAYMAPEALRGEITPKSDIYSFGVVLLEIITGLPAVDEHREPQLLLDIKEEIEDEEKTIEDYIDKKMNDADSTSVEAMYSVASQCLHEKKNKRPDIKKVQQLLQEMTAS

[7] = target: panel of 255 wild-type kinases (Homo sapiens, UniProt P35916); conditions: read-out: %-inhibition at 1 µmol/L, FLT4
[8] = target: panel of 255 wild-type kinases (Homo sapiens, UniProt P53350); conditions: read-out: %-inhibition at 1 µmol/L, PLK1
[9] = kinase EPHA4, 1 µmol/L single concentration
[10] = kinase TYRO3, 1 µmol/L single concentration
[11] = BMX kinase assay, 1 µmol/L single concentration
[12] = CDC7/ASK kinase assay, 1 µmol/L single concentration
[13] = NDR2, 1 µmol/L single concentration
[14] = kinase IRAK4, 1 µmol/L single concentration
[15] = kinase FLT4, 1 µmol/L single concentration
[16] = kinase PLK1, 1 µmol/L single concentration

| Structure (SMILES) | inhibition at 1 µM [1, 9] [%] | inhibition at 1 µM [2, 10] [%] | inhibition at 1 µM [3, 11] [%] | inhibition at 1 µM [4, 12] [%] | inhibition at 1 µM [5, 13] [%] | inhibition at 1 µM [6, 14] [%] | inhibition at 1 µM [7, 15] [%] | inhibition at 1 µM [8, 16] [%] | inhibition at 1 µM [1] [%] | inhibition at 1 µM [2] [%] | inhibition at 1 µM [3] [%] | inhibition at 1 µM [4] [%] | inhibition at 1 µM [5] [%] | inhibition at 1 µM [6] [%] | inhibition at 1 µM [7] [%] | inhibition at 1 µM [8] [%] |
| --- | --- | --- | --- | --- | --- | --- | --- | --- | --- | --- | --- | --- | --- | --- | --- | --- |
| Cc1nc(NC(=O)N2CCC[C@H]2C(N)=O)sc1-c1ccnc(C(C)(C)C(F)(F)F)c1 [alpelisib] | -5 | 1.52 | 0.476 | -0.499 | -2 | -3.77 | 5 | 0.0286 | – | – | – | – | – | – | – | – |
| Cn1cc(-c2cc3c(N4CCN(c5ncc([C@@](C)(N)c6ccc(F)cc6)cn5)CC4)ncnn3c2)cn1 [avapritinib] | 35 | 72 | 21 | 0.0396 | -2.84 | 12 | 88 | -1.53 | – | – | – | – | – | – | – | – |
| Cn1cnc2c(F)c(Nc3ccc(Br)cc3F)c(C(=O)NOCCO)cc21 [binimetinib] | 7.56 | 5.28 | 4 | -0.214 | -1.45 | 1.26 | 3.37 | 0.406 | – | – | – | – | – | – | – | – |
| CNC(=O)c1ccc(-c2cnc3ncc(Cc4ccc5ncccc5c4)n3n2)cc1F [capmatinib] | – | – | – | – | – | – | – | – | -2.77 | 7 | 4.33 | -1.4 | -5.51 | -0.569 | 10 | -5 |
| COc1cc2ncnc(Nc3ccc(F)c(Cl)c3)c2cc1NC(=O)/C=C/CN1CCCCC1 [dacomitinib] | 38 | 27 | 12 | 0.799 | -1.58 | 19 | 34 | 3.78 | – | – | – | – | – | – | – | – |
| C[C@H](Nc1ncnc2nc[nH]c12)c1cc2cccc(Cl)c2c(=O)n1-c1ccccc1 [duvelisib] | -0.265 | 6 | 1.46 | 0.486 | -0.151 | 1.13 | 0.523 | 0.784 | – | – | – | – | – | – | – | – |
| COC(=O)N[C@@H](C)CNc1nccc(-c2cn(C(C)C)nc2-c2cc(Cl)cc(NS(C)(=O)=O)c2F)n1 [encorafenib] | 10 | 8 | 8 | -4.28 | 5 | -1.14 | 17 | -2.56 | – | – | – | – | – | – | – | – |
| CN1CCN(c2ccc(C(=O)Nc3n[nH]c4ccc(Cc5cc(F)cc(F)c5)cc34)c(NC3CCOCC3)c2)CC1 [entrectinib] | 28 | 20 | 99 | 0.952 | 51 | 8 | – | 0.212 | – | – | – | – | – | – | – | – |
| CCc1nc(C(N)=O)c(Nc2ccc(N3CCC(N4CCN(C)CC4)CC3)c(OC)c2)nc1NC1CCOCC1 [gilteritinib] | 36 | 93 | 60 | 3 | 66 | 79 | 99 | 7.52 | – | – | – | – | – | – | – | – |
| CCN1CCN(c2ccc(Nc3cc(N(C)C(=O)Nc4c(Cl)c(OC)cc(OC)c4Cl)ncn3)cc2)CC1 [infigratinib] | 0.256 | 10 | 0.836 | -2 | -3.19 | -1.22 | 92 | 0.613 | – | – | – | – | – | – | – | – |
| C=CC(=O)N1CCC([C@@H]2CCNc3c(C(N)=O)c(-c4ccc(Oc5ccccc5)cc4)nn32)CC1 [zanubrutinib] | -0.204 | 5.5 | – | -4 | 0.505 | 1 | 6.34 | -0.741 | – | – | – | – | – | – | – | – |
